Test results: patent publication US6855714B2, “1-alkyl-2-aryl-benzimidazole derivatives, their use for the production of pharmaceutical agents as well as pharmaceutical preparations that contain these derivatives” (Schering Aktiengesellschaft, priority 2001, dated 2005)
pIC50: −log10 of the molar value.

System: primary rat microglia
Assay: Inhibition of microglia activation (Aβ peptide stimulation, MTS reduction)
Assay type: cell-based
Conditions: Aβ-activated primary rat microglia, MTS reduction on day 7, compound added on day 5; read-out: IC50 in the Microglia Inhibition Test
Protocol: For in vitro production of Aβ-activated microglia, primary rat microglia are incubated with synthetic Aβ peptide:
To simulate Aβ deposits, synthetic Aβ peptide is dried on 96-hole tissue culture plates. A peptide stock solution of 2 mg/ml of H2O 1:50 in H2O, is diluted in this. To coat the 96-hole plates, 30 μL of this dilute peptide solution/hole is used and dried overnight at room temperature.
Primary rat microglia are harvested from mixed glia cultures, which were obtained from P3 rat brains. For the production of mixed glia cultures, the brains are removed from 3-day-old rats and meninges are removed therefrom. The isolation of cells is achieved by trypsinization (0.25% trypsin solution, 15 minutes 37° C.)). After undigested tissue fragments are separated with the aid of a 40 µm nylon mesh, the isolated cells are centrifuged off (800 rpm/10 minutes). The cell pellet is resuspended in culture medium and moved into 100 ml tissue culture flasks (1 brain/tissue culture flask). […]
To quantify the microglia reactivity, the metabolic activity is measured on cultivation day 7 via the reduction of MTS (3-(4,5-dimethylthiazol-2-yl)-5-(3carboxymethoxyphenyl)-2-(sulfophenyl)-2H-tetrazolium), Owen's reagent, Baltrop, J. A. et al., Bioorg. & Med. Chem. Lett., 1, 6111 (1991)). […]

COC(=O)CCCCCOc1ccc2nc(-c3ccc(OC)cc3)n(CCCN(C)C(C)=O)c2c1 [6-[(5-(Methoxycarbonyl)pentyl)oxy]-2-(4-methoxy-phenyl)-1-[3-(N-methyl-N-(methylcarbonyl)amino)propyl]-benzimidazole]
pIC50: 6.41

COCCCn1c(-c2ccccc2)nc2ccc(OCCCCCC(=O)OC)cc21 [6-[(5-(Methoxycarbonyl)pentyl)oxy]-1-(3-methoxy-n-propyl)-2-phenyl-benzimidazole]
pIC50: 6.19
